“Also recorded” adds a separate entry of the source.
How the values were obtained:
[1] = test system: Bemisia tabaci, GUA MIX; test: Glasshouse simulator trial: B. tabaci pupae protein on tomato plants treated with cis-jasmone and PBO; type: in vivo; details: for μg (Av) Total Protein (B. tabaci pupae): simulator, ten tomato plants per treatment, ten adult whiteflies per plant, ~16 days
Procedure: (§1) In all bioassay experiments the control plants were sprayed with deionised water. Initially seven treatments were used (Table 1) to test all chemical variables. All treatments were applied hydraulically with a spray simulator after which the plants were separated according to treatment (with cis-jasmone controls being separated) and left for 2 hours prior to insect application.
(§2) Analysis of protein in each treatment was conducted using Bradford Reagent: the data were analysed using the computer programme ‘GraFit’ (Erithacus software, Berkeley). To calculate the calibration curve a single logarithmic curve was used with regression analysis taking the values of the treatment wells (averages of the three readings taken: technical replicates).
(§3) A new method for the investigation of the development of whitefly to the pupal stage on tomatoes and cotton was used. […] These were checked for protein after ˜16 days using Bradford reagent.
(§4) Adults were added to the plant 2 h after treatment, and removed after 24 h. The eggs laid were then left for 16-18 days until they reached the pupal stage. The total pupal protein on the plant was tested using the Bradford reagent.
As described above 10 adult females were released on to each tomato plant, ten/treatment and after ˜16 days pupae were removed using a scalpel blade. These were checked for total protein using Bradford reagent. Plants were put into glasshouse simulators (one/treatment) and kept at 28° C., 12 L: […] and 80% R.H.

[2] = test system: Myzus persicae, US1L; test: Bioassay: M. persicae protein on four pepper plants treated with cis-jasmone and PBO (1, 5 or 10 adults per plant); type: in vivo; details: for Av. Total Insect Protein μg: Bioassay, M. persicae (US1L), average of weeks 1 to 3; for μg (Av) Total Protein (M. persicae): four pepper plants, 7 days
Procedure: as §1
as §2, with “replicates). […]” for “replicates).”
To investigate developmental/fecundity effects of cis-jasmone+/−PBO E on Myzus persicae when applied to sweet peppers, one adult was added to the plants. Aphids were brushed from all plants and each leaf checked individually to ensure none remained. The aphid mass for each treatment was assessed for total protein (total from all four plants in the treatment) using Bradford reagent. The amount of aphid protein present on the plants 7 days after treatment was measured.
(§5) Myzus persicae was applied to sweet peppers at the rate of five adults were added per plant. Aphids were brushed from all plants and each leaf checked individually to ensure none remained. The aphid mass for each treatment was assessed for total protein (total from all four plants in the treatment) using Bradford reagent. The amount of aphid protein present on the plants 7 days after treatment was measured (for further information see Example 3).
as §5, with “persicae were” for “persicae was”, “of ten” for “of five”, “adults” for “adults were added”

[3] = test system: B. tabaci; test: B. tabaci pupae protein on cotton plants treated with PBO and/or microencapsulated cis-jasmone; type: in vivo, Bemisia tabaci; details: five cotton plants per treatment, 5 adult female whiteflies per plant, ~16 days
Procedure: as §3, §4

[4] = test system: Bemisia tabaci, GUA MIX; test: Bioassay: B. tabaci pupae protein on one tomato plant treated with cis-jasmone and PBO; type: in vivo; details: for μg (Av) Total Protein (B. tabaci pupae): one tomato plant, ten adult whiteflies, ~16 days
Procedure: as §1, §2, §3, §4

[5] = test system: Myzus persicae, US1L; test: Glasshouse simulator trial: M. persicae protein on pepper plants treated with cis-jasmone and PBO; type: in vivo; details: for μg (Av) Total Protein (M. persicae): simulator, 25 pepper plants per treatment, three adult apterous aphids per plant, 7 days
Procedure: as §1, §2
To investigate developmental/fecundity effects of cis-jasmone+/−PBO (see Table 1) on Myzus persicae when applied to sweet peppers, adults were added to the plants and then using Bradford reagent, the amount of aphid protein present on the plants 7 days after treatment was measured. Esterase levels were also tested after the same interval to check for the possible induction of metabolic enzymes when using cis-jasmone. Aphids were brushed from all plants and each leaf checked individually to ensure none remained. The aphid mass for each treatment was weighed before total protein was assessed (total from all […] plants in the treatment).
Myzus persicae were applied to sweet peppers at the rate of three adults per plant. Aphids were brushed from all plants and each leaf checked individually to ensure none remained. The aphid mass for each treatment was assessed for total protein (total from all 25 plants in the treatment) using Bradford reagent. The amount of aphid protein present on the plants 7 days after treatment was measured. Plants were put into glasshouse simulators (one/treatment) and kept at 28° C., 12 L: […] and 80% R.H.

[6] = test system: Aphis gossypii; test: A. gossypii protein on cotton plants treated with propyl gallate and cis-jasmone; type: in vivo; details: A. gossypii on cotton
[7] = test system: first instar aphids; test: BABA root drench concentration series, aphid population growth on brassica and potato; type: in vivo; details: series 1-10 mM, aphids weighed after 1 week
Procedure: Using example crops of brassica [Brassica nigra] and potato [Solanum tuberosum]; BABA was added as a drench to the roots to ‘prime’ the plants in a series of concentrations (1-10 mM). The plants were artificially infested with a set number of first instar aphids (characterised as insecticide-resistant or -susceptible) and left for 1 week. At the end of this period, all aphids were removed and weighed to determine the growth of the population. This identified the optimal concentration of BABA to use to produce maximum secondary metabolites within the plant. All concentrations were lower than that which could cause direct damage to the crop. 3 mM BABA was identified as optimal for the conditions employed.

[8] = test system: whitefly (B. tabaci); test: Bioassay: B. tabaci pupae protein on cotton and tomato plants treated with BABA and/or PBO; type: in vivo, Bemisia tabaci; details: 3 mM BABA root drench, PBO E spray
Procedure: In all bioassay experiments the control plants were sprayed with deionised water. Initially seven treatments were used (Table 1b) to test all chemical variables. […] Analysis of protein in each treatment was conducted using Bradford Reagent: the data were analysed using the computer programme ‘GraFit’ (Erithacus software, Berkeley). To calculate the calibration curve a single logarithmic curve was used with regression analysis taking the values of the treatment wells (averages of the three readings taken: technical replicates). Laboratory tests were undertaken to compare effects of combined and single treatments of PBO and BABA on control of aphid (M. persicae) on potato, pepper, and black mustard and whitefly (B. tabaci) on cotton and tomato. All tests included untreated and blank (water) controls, and both single and combined applications of PBO and BABA. […] Adults were added to the plant 2 days after treatment, and removed after 24 h. The eggs laid were then left for 16-18 days until they reached the pupal stage. The total pupal protein on the plant was tested using the Bradford reagent.

[9] = test system: aphid (M. persicae); test: Bioassay: M. persicae protein on potato, pepper and black mustard plants treated with BABA and/or PBO; type: in vivo, Myzus persicae; details: 3 adult apterous aphids per plant, 3 mM BABA root drench, PBO E spray, 7 days
Procedure: In all bioassay experiments the control plants were sprayed with deionised water. Initially seven treatments were used (Table 1b) to test all chemical variables. […] Analysis of protein in each treatment was conducted using Bradford Reagent: the data were analysed using the computer programme ‘GraFit’ (Erithacus software, Berkeley). To calculate the calibration curve a single logarithmic curve was used with regression analysis taking the values of the treatment wells (averages of the three readings taken: technical replicates). Laboratory tests were undertaken to compare effects of combined and single treatments of PBO and BABA on control of aphid (M. persicae) on potato, pepper, and black mustard and whitefly (B. tabaci) on cotton and tomato. All tests included untreated and blank (water) controls, and both single and combined applications of PBO and BABA. […] To investigate developmental/fecundity effects of BABA+/−PBO E (see Table 1) on Myzus persicae when applied to plants, adults were added to the plants and then using Bradford reagent, the amount of aphid protein present on the plants 7 days after treatment was measured. Esterase levels were also tested after the same interval to check for the possible induction of metabolic enzymes when using BABA. Aphids were brushed from all plants and each leaf checked individually to ensure none remained. The aphid mass for each treatment was weighed before total protein was assessed (total from all five plants in the treatment).

[10] = five adult apterous aphids per plant, week 1
[11] = five adult apterous aphids per plant, week 2
[12] = five adult apterous aphids per plant, week 3
[13] = one adult apterous aphid per plant, week 1
[14] = one adult apterous aphid per plant, week 2
[15] = one adult apterous aphid per plant, week 3
[16] = ten adult apterous aphids per plant, week 1
[17] = ten adult apterous aphids per plant, week 2
[18] = ten adult apterous aphids per plant, week 3

`CC/C=C\CC1=C(C)CCC1=O` [CJ, cis-jasmone] was tested, and the “Av. Total Insect Protein μg” value ([1]; Simulator, Bemisia tabaci (GUA MIX) on Tomato (Carousel), average of weeks 1 to 3) was 0.104 µg, the “μg (Av) Total Protein (B. tabaci pupae)” value ([1]; week 1) was 0.109 µg and the “μg (Av) Total Protein (B. tabaci pupae)” value ([1]; week 2) was 0.102 µg. The “μg (Av) Total Protein (B. tabaci pupae)” value ([1]; week 3) was 0.100 µg, the “Av. Total Insect Protein μg” value ([2]; 1 adult/plant) was 7.690 µg and the “Av. Total Insect Protein μg” value ([2]; 5 adults/plant) was 11.330 µg. The “Av. Total Insect Protein μg” value ([2]; 10 adults/plant) was 25.210 µg, the “μg (Av) Total Protein (M. persicae)” value [2, 10] was 11.00 µg and the “μg (Av) Total Protein (M. persicae)” value [2, 11] was 11.99 µg. For the same compound, the “μg (Av) Total Protein (M. persicae)” value [2, 12] was 11.00 µg, the “μg (Av) Total Protein (M. persicae)” value [2, 13] was 11.00 µg and the “μg (Av) Total Protein (M. persicae)” value [2, 14] was 3.27 µg. For the same compound, the “μg (Av) Total Protein (M. persicae)” value [2, 15] was 8.80 µg, the “μg (Av) Total Protein (M. persicae)” value [2, 16] was 25.14 µg and the “μg (Av) Total Protein (M. persicae)” value [2, 17] was 25.4 µg. For the same compound, the “μg (Av) Total Protein (M. persicae)” value [2, 18] was 25.1 µg, the “Protein WF (Av)” value ([3]; week 1) was 0.03 µg and the “Protein WF (Av)” value ([3]; week 2) was 0.06 µg. For the same compound, the “Av. Total Insect Protein μg” value ([4]; Bioassay, Bemisia tabaci (GUA MIX), average of weeks 1 to 3) was 0.167 µg, the “μg (Av) Total Protein (B. tabaci pupae)” value ([4]; week 1) was 0.1 µg and the “μg (Av) Total Protein (B. tabaci pupae)” value ([4]; week 2) was 0.2 µg. For the same compound, the “μg (Av) Total Protein (B. tabaci pupae)” value ([4]; week 3) was 0.2 µg, the “Av. Total Insect Protein μg” value ([5]; Simulator, M. persicae (US1L) on Pepper (BellBoy), average of weeks 1 to 3) was 13.842 µg and the “μg (Av) Total Protein (M. persicae)” value ([5]; week 1) was 13.82 µg. For the same compound, the “μg (Av) Total Protein (M. persicae)” value ([5]; week 2) was 13.8 µg and the “μg (Av) Total Protein (M. persicae)” value ([5]; week 3) was 13.9 µg.

For `CCCOC(=O)c1cc(O)c(O)c(O)c1` [propyl gallate, Propyl 3,4,5-trihydroxybenzoate], the “effect of propyl gallate on efficacy of microencapsulated cis-Jasmone (in words)” value [6] was “significantly (p<0.05) improves the efficacy of microencapsulated cis-Jasmone; also recorded: potentiates microencapsulated cis-Jasmone at least as well as PBO”.

In the case of “2-(2-butoxyethoxy)ethyl 6-propylpiperonyl ether [PBO T + Acetone]”, the “Av. Total Insect Protein μg” value ([2]; 1 adult/plant) is reported as 11.610 µg, the “Av. Total Insect Protein μg” value ([2]; 5 adults/plant) is reported as 20.370 µg and the “Av. Total Insect Protein μg” value ([2]; 10 adults/plant) is reported as 34.830 µg. The “μg (Av) Total Protein (M. persicae)” value [2, 10] was 22.30 µg, the “μg (Av) Total Protein (M. persicae)” value [2, 11] was 16.50 µg and the “μg (Av) Total Protein (M. persicae)” value [2, 12] was 22.30 µg. The “μg (Av) Total Protein (M. persicae)” value [2, 13] was 12.23 µg, the “μg (Av) Total Protein (M. persicae)” value [2, 14] was 12.30 µg and the “μg (Av) Total Protein (M. persicae)” value [2, 15] was 10.30 µg. For the same compound, the “μg (Av) Total Protein (M. persicae)” value [2, 16] was 37.68 µg, the “μg (Av) Total Protein (M. persicae)” value [2, 17] was 33.6 µg and the “μg (Av) Total Protein (M. persicae)” value [2, 18] was 33.2 µg.

With `CC(N)CC(=O)O` (stereo not drawn) [BABA, beta aminobutyric acid] the “optimal concentration of BABA” value [7] was 3 mM, the “Protein WF (Av)” value ([8]; cotton plants, ~16 days, week 1) was 0.1 µg and the “Protein WF (Av)” value ([8]; cotton plants, ~16 days, week 2) was 0.2 µg. For the same compound, the “Protein WF (Av)” value ([8]; cotton plants, ~16 days, week 3) was 0.2 µg, the “Protein WF (Av)” value ([8]; tomato plants, week 1) was 0.1 µg and the “Protein WF (Av)” value ([8]; tomato plants, week 2) was 0.23 µg. For the same compound, the “Protein WF (Av)” value ([8]; tomato plants, week 3) was 0.15 µg, the “Protein A (Av)” value ([9]; five black mustard plants, week 1) was 14.56 µg and the “Protein A (Av)” value ([9]; five black mustard plants, week 2) was 15.10 µg. For the same compound, the “Protein A (Av)” value ([9]; five black mustard plants, week 3) was 14.10 µg, the “Protein A (Av)” value ([9]; five pepper plants, week 1) was 15.10 µg and the “Protein A (Av)” value ([9]; five pepper plants, week 2) was 16.10 µg. For the same compound, the “Protein A (Av)” value ([9]; five pepper plants, week 3) was 15.00 µg, the “Protein A (Av)” value ([9]; five potato plants, week 1) was 7.80 µg and the “Protein A (Av)” value ([9]; five potato plants, week 2) was 7.90 µg. The “Protein A (Av)” value ([9]; five potato plants, week 3) was 8.30 µg.

Source: US8329617B2, “Compositions and methods for synergistic manipulation of plant and insect defenses” (Plant Bioscience Limited, priority 2007, dated 2012)
